Laboratory results as given in US11998536B2, “Decreasing expression level of proteasome subunit genes by treating a human subject with a nitroxide” (priority 2018, dated 2024).

Columns and labels:
Psma2 = assay: Gene expression in Tempol-fed mice, chip-based microarray; assay type: in vivo; conditions: white adipose tissue per table title (cardiac tissue per text)
Description: (§1) To assess the effects of Tempol on gene expression, Tempol was administered to experimental mice at a dose of 5 mg/g of food from 14 months to 31 months after birth. Mice receiving the same food without the addition of Tempol were used as a negative control. At the age of 31 months, the experimental animals were sacrificed and the hearts were surgically removed. The expression of a broad spectrum of genes in the cardiac tissue was assessed using chip-based microarray technology. Such chips are well known in the art and are widely used to assess gene expression.

Psma6 = assay: as above; assay type: in vivo; conditions: white adipose tissue per table title (cardiac tissue per text)
Description: as §1

Psma7 = assay: as above; assay type: in vivo; conditions: white adipose tissue per table title (cardiac tissue per text)
Description: as §1

Psmb4 = assay: as above; assay type: in vivo; conditions: white adipose tissue per table title (cardiac tissue per text)
Description: as §1

Psmb5 = assay: as above; assay type: in vivo; conditions: white adipose tissue per table title (cardiac tissue per text)
Description: as §1

Psmc2 = assay: as above; assay type: in vivo; conditions: white adipose tissue per table title (cardiac tissue per text)
Description: as §1

Psmc3 = assay: as above; assay type: in vivo; conditions: white adipose tissue per table title (cardiac tissue per text)
Description: as §1

Psmc4 = assay: as above; assay type: in vivo; conditions: white adipose tissue per table title (cardiac tissue per text)
Description: as §1

Psmc6 = assay: as above; assay type: in vivo; conditions: white adipose tissue per table title (cardiac tissue per text)
Description: as §1

Psmd12 = assay: as above; assay type: in vivo; conditions: white adipose tissue per table title (cardiac tissue per text)
Description: as §1

Psmd13 = assay: as above; assay type: in vivo; conditions: white adipose tissue per table title (cardiac tissue per text)
Description: as §1

Psmd14 = assay: as above; assay type: in vivo; conditions: white adipose tissue per table title (cardiac tissue per text)
Description: as §1

Psmd3 = assay: as above; assay type: in vivo; conditions: white adipose tissue per table title (cardiac tissue per text)
Description: as §1

Psmd4 = assay: as above; assay type: in vivo; conditions: white adipose tissue per table title (cardiac tissue per text)
Description: as §1

Psmd9 = assay: as above; assay type: in vivo; conditions: white adipose tissue per table title (cardiac tissue per text)
Description: as §1

Psme4 = assay: as above; assay type: in vivo; conditions: white adipose tissue per table title (cardiac tissue per text)
Description: as §1

[1] = tested on: genes associated with proteasome activity; assay: Gene expression in Tempol-fed mice, chip-based microarray (summary in text); assay type: in vivo; conditions: Tempol 5 mg/g of food from 14 to 31 months; cardiac tissue; vs mice on same food without Tempol
Description: as §1

[2] = tested on: β5/β5i sites (chymotrypsin-like sites) of the proteasome; conditions: cited from earlier work
[3] = biological target: β1 (caspase-like) sites of the proteasome (Homo sapiens, UniProt P28072); conditions: relative to β5/β5i sites; cited from earlier work
[4] = biological target: β2 sites of the proteasome (Homo sapiens, UniProt Q99436); conditions: under normal conditions; cited from earlier work
[5] = Tempol 5 mg/g of food from 14 to 31 months, microarray
[6] = Tempol-treated vs control mice, 5 mg/g of food from 14 to 31 months

CC1(C)CC(O)CC(C)(C)N1[O] [Tempol, 4-hydroxy-2,2,6,6-tetramethylpiperidine-1-oxyl]
Psma2 expression, Tempol-treated mice (Psma2; [5]): 3123
Psma2 fold change (Psma2; [6]): −1.20
Psma6 expression, Tempol-treated mice (Psma6; [5]): 3467
Psma6 fold change (Psma6; [6]): −1.09
Psma7 expression, Tempol-treated mice (Psma7; [5]): 1513
Psma7 fold change (Psma7; [6]): −1.23
Psmb4 expression, Tempol-treated mice (Psmb4; [5]): 3614
Psmb4 fold change (Psmb4; [6]): −1.15
Psmb5 expression, Tempol-treated mice (Psmb5; [5]): 1754
Psmb5 fold change (Psmb5; [6]): −1.15
Psmc2 expression, Tempol-treated mice (Psmc2; [5]): 2176
Psmc2 fold change (Psmc2; [6]): −1.23
Psmc3 expression, Tempol-treated mice (Psmc3; [5]): 1810
Psmc3 fold change (Psmc3; [6]): −1.23
Psmc4 expression, Tempol-treated mice (Psmc4; [5]): 1101
Psmc4 fold change (Psmc4; [6]): −1.52
Psmc6 expression, Tempol-treated mice (Psmc6; [5]): 1449
Psmc6 fold change (Psmc6; [6]): −1.16
Psmd12 expression, Tempol-treated mice (Psmd12; [5]): 1098
Psmd12 fold change (Psmd12; [6]): −1.20
Psmd13 expression, Tempol-treated mice (Psmd13; [5]): 1047
Psmd13 fold change (Psmd13; [6]): −1.23
Psmd14 expression, Tempol-treated mice (Psmd14; [5]): 2745
Psmd14 fold change (Psmd14; [6]): −1.20
Psmd3 expression, Tempol-treated mice (Psmd3; [5]): 1017
Psmd3 fold change (Psmd3; [6]): −1.12
Psmd4 expression, Tempol-treated mice (Psmd4; [5]): 2610
Psmd4 fold change (Psmd4; [6]): −1.20
Psmd9 expression, Tempol-treated mice (Psmd9; [5]): 310
Psmd9 fold change (Psmd9; [6]): −1.18
Psme4 expression, Tempol-treated mice (Psme4; [5]): 1086
Psme4 fold change (Psme4; [6]): −1.16
Change in expression of the 16 listed proteasome genes [1]: statistically significant decrease in expression

CC(C)C[C@H](NC(=O)[C@H](Cc1ccccc1)NC(=O)c1cnccn1)B(O)O [bortezomib]
Inhibition of β5/β5i sites [2]: high potency
Affinity for β1 sites, lower than for β5/β5i sites [3]: approximately 10 fold
Targeting of β2 sites [4]: not appreciably targeted
